# Experimental data reported in US20210353749A1, “GUANABENZ AS AN ADJUVANT FOR IMMUNOTHERAPY” (UNIVERSITÉ CATHOLIQUE DE LOUVAIN, priority 2018, published 2021).
# Tests used:
# [1] = system: Mouse TCRP1A CD8+ T cells; assay: IFNγ secretion assay (ELISA), mouse T cells; format: cell-based; details: guanabenz 10, 20 or 40 μM, 16 h to 24 h, co-culture with L1210-P1A-B7.1 target cells; FIG. 1B
# Procedure: Mouse TCRP1A CD8^+ T cells: P1A-specific (TCRP1A) CD8^+ T cells were isolated from spleens and lymph nodes of TCRP1A mice using anti-mouse CD8a (Ly-2) MicroBeads (Miltenyi Biotec). IFNγ secretion assay: CD8^+ T cells were plated at 50,000 cells per well in a 96 U plate with different concentration of guanabenz in full medium supplemented with IL2 and incubated at 37° C. overnight prior to their use in the assay on the next day. On the day of the assay, the culture supernatant was removed from the cells and the cells were washed once with complete medium to remove the drug completely. The target cells L1210-P1A-B7.1 or T2 cells loaded with WT1126-134 peptide were added to the wells at a ratio of 1:1. Control wells containing either only T cells or […] were also included for each plate. The plate was then incubated at 37° C. overnight. At the end of the incubation period the supernatant was collected and the amount of IFNγ was measured by ELISA according to manufacturer's instruction (R&D). T cells were incubated with guanabenz (10, 20, or 40 μM) for 16 h to 24 h as indicated. Mice received a daily intra-peritoneal injection of guanabenz (5 mg/kg) or vehicle (PBS) from the day of randomization (and the day of ACT when applicable) until the day of sacrifice.
# [2] = system: T429.11 transplanted tumor; assay: TiRP-derived T429.11 transplanted melanoma model; format: in vivo, mouse
# Procedure: TiRP-derived T429.11 transplanted melanoma model: T429.11 clone was derived from an induced Amela TiRP tumor referred to as T429. It was cloned from the T429 induced melanoma primary tumor line. Two million of T429.11 tumor cells were injected subcutaneously into recipient mice for tumor establishment (Zhu et al, Nat Commun 2017, 10; 8(1):1404).
# T cells were incubated with guanabenz (10, 20, or 40 μM) for 16 h to 24 h as indicated. Mice received a daily intra-peritoneal injection of guanabenz (5 mg/kg) or vehicle (PBS) from the day of randomization (and the day of ACT when applicable) until the day of sacrifice.
# The T429.11 transplanted melanoma model was previously shown not to respond to anti-PD-1 and anti-CTLA4 therapy (Zhu et al., Nature communications. Nov. 10 2017; 8(1):1404). T429.11 transplanted tumor bearing mice received daily injections of guanabenz (5 mg/kg, i.p.) or vehicle (PBS, i.p.) from the day when the tumor size was around 1000 mm^3 (day 1) until the day of sacrifice (day 6). […] As shown on FIG. 2B, the decreased tumor growth was accompanied with an increased tumor infiltration of CD8^+ T cells.
# TiRP tumor [3] = assay: TiRP melanoma model, drug alone; format: in vivo, mouse; details: 5 mg/kg i.p. daily from tumor size around 400 mm^3 (day 0) to day 12, vs vehicle; FIG. 3
# Source text: TiRP mice: TiRP mice have been created by crossing Ink4a/Arf^flox/flox mice with mice carrying a transgenic construct controlled by the tyrosinase promoter and driving the expression of H-Ras^12V and Trap1a which encodes a MAGE-type tumor antigen P1A; the promoter is separated from the coding region by a stop cassette made of a floxed self-deleting CreER (Huijbers et al., 2006, Cancer Res 66, 3278-3286). Those mice were backcrossed to a B10.D2 background and bred to homozygosity. TCRP1A mice heterozygous for the H-2Ld/P1A35-43-specific TCR transgene were kept on the B10.D2; Rag1^−/− background (Shanker et al., 2004, J Immunol 172, 5069-5077). All mice used in this study were produced under specific pathogen free (SPF) conditions at the animal facility of the Ludwig Institute for Cancer Research. All the rules concerning animal welfare have been respected according to the 2010/63/EU Directive. […]
# A fresh solution of 40H-Tamoxifen was prepared by dissolving 40H-Tamoxifen (Imaginechem) in 100% ethanol and mineral oil (ratio 1:9) followed by 30-min sonication, and injected subcutaneously (2 mg/200 μL per mouse) in the neck area of gender-matched 7 weeks old TiRP mice. Tumor appearance was monitored daily and tumors were measured three times/week. Tumor volume (in mm^3) was calculated by the following formula: Volume=width^2×length/2. […]
# TiRP tumor [4] = assay: TiRP melanoma model with adoptive cell transfer of naïve P1A-specific CD8+ T cells; format: in vivo, mouse; details: guanabenz 5 mg/kg i.p. daily with ACT of 2 million naïve T cells, 4 days after the ACT, vs control; FIG. 6
# Procedure: FIG. 6 is a histogram showing the tumor infiltration of P1A-specific CD8^+ T cells evaluated 4 days after ACT of naïve TCRP1A CD8^+ T cells by FACS in mice that received guanabenz (5 mg/kg, i.p.) or vehicle (PBS, i.p.). In the preceding experiments, before being transferred to TiRP-tumor bearing mice, the P1A-specific CD8^+ T were pre-activated in vitro by co-culture with irradiated L1210-P1A-B7.1 cells as described hereinabove. […] TiRP-tumor bearing mice were administered an adoptive cell transfer (ACT) of 2 million of naïve P1A-specific CD8^+ T cells and daily injections of guanabenz from the day of the ACT. […] Thus, when the mice were administered guanabenz, the transferred naïve CD8^+ T cells were properly primed and populated the tumor.
compound,measurement,setting,value
"NC(N)=N/N=C/c1c(Cl)cccc1Cl [guanabenz, 2-[(E)-(2,6-dichlorophenyl)methylideneamino]guanidine]",secretion of IFNγ (ELISA),[1],increased
same,tumor growth,"[2]; 5 mg/kg i.p. daily from tumor size around 1000 mm^3 (day 1) to day 6, vs vehicle, FIG. 2A",inhibited tumor growth
same,tumor infiltration of CD8+ T cells (FACS),"[2]; 5 mg/kg i.p. daily, day of sacrifice (day 6), vs vehicle, FIG. 2B",increased
same,TiRP tumor growth,TiRP tumor [3],inhibitory effect
same,tumor infiltration of P1A-specific CD8+ T cells,TiRP tumor [4],significantly increased
